Laboratory results: ChEMBL document CHEMBL1156829 (Proc Natl Acad Sci U S A, 2008)

Tests used:
[1] = NOVARTIS: Cytotoxicity against human hepatocellular carcinoma cell line (Huh7); type: toxicity, cell-based, Huh-7; conditions: Huh7 cells (hepatocellular carcinoma cell line)
Plasmodium falciparum [2] = test: NOVARTIS: Inhibition of Plasmodium falciparum 3D7 (drug-susceptible) proliferation in erythrocyte-based infection assay; type: functional, organism-based; conditions: Plasmodium falciparum, 3D7
Plasmodium falciparum [3] = test: NOVARTIS: Inhibition of Plasmodium falciparum W2 (drug-resistant) proliferation in erythrocyte-based infection assay; type: functional, organism-based; conditions: Plasmodium falciparum, W2; read-out: EC50

SMILES | CC50 [1] [nM] | EC50 (Plasmodium falciparum [2]) [nM] | EC50 (Plasmodium falciparum [3]) [nM]
CCCC(=O)O[C@]1(C(=O)CCl)[C@@H](C)C[C@H]2[C@@H]3CCC4=CC(=O)C=C[C@]4(C)[C@@]3(F)C(=O)C[C@@]21C | 80000 | > 12500 | 6080
CN(C)CC(O)Cn1c2ccccc2c2ccccc21 (configuration not stated) | 52800 | > 11700 | 275
CCOC(=O)COc1ccc(C2NC(=S)NC(C)=C2C(C)=O)cc1OC (configuration not stated) | > 100000 | 4030 | 496
Cc1ccc(C)c(N2CCN(CCCNC(=O)c3ccc(CSc4nc5cnccc5[nH]4)cc3)CC2)c1 | 23000 | 644 | 190
CCCOc1ccc(C(=O)Nc2cccc(-c3nc4ncccc4o3)c2)cc1 | > 10000 | 415 | > 1750
C=CC1CN2CCC1CC2C(OC(=O)C1CC1)c1ccnc2ccccc12 (configuration not stated) | 42200 | 84.7 | 199
Oc1ccc2ccccc2c1CNc1nc2ccccc2[nH]1 | 14300 | 652 | 450
CCCCCC1CCCc2c1[nH]c1cc(Cl)ccc1c2=O (configuration not stated) | > 100000 | 475 | 302
CC(OC(=O)c1ccccc1N1C(=O)C2C3C=CC(C4CC34)C2C1=O)C(=O)c1ccccc1 (configuration not stated) | > 100000 | 961 | 1570
Cc1cccc(-c2cc3nc(C)c(C)c(O)n3n2)c1 | > 100000 | > 9720 | 7540
CCOC(=O)c1nnn(-c2nonc2N)c1-c1ccc(Cl)cc1 | > 100000 | 397 | 160
CCOC(=O)c1c[nH]c2ccc(C)cc2c1=O | > 100000 | 2700 | 2760
O=C1c2cccc3c(C4=NN(c5ccccc5)C(c5ccc(Cl)cc5)C4)ccc(c23)C(=O)N1c1ccccc1 (configuration not stated) | > 10000 | > 1250 | 407
CCC(c1nc2ccccc2c(=O)n1-c1ccccc1OC)N(CCc1ccccc1)C(=O)CCc1ccccc1 (configuration not stated) | 4170 | 134 | < 0.572
O=C(CN1CCCC1)Nc1nc(-c2ccc3c(c2)CCN3S(=O)(=O)c2ccccc2)cs1 | > 76200 | 468 | 1270
CC(C)CN1C(=O)c2ccccc2C(C(=O)Nc2ccc(C(C)C)cc2)C1c1cccs1 (configuration not stated) | > 100000 | 2410 | 1200
CC(=NNC(=O)c1ccc([N+](=O)[O-])cc1)c1cccc([N+](=O)[O-])c1 | > 10000 | > 1410 | > 406

SMILES | CC50 [1] [nM] | EC50 (Plasmodium falciparum [2]) [nM] | EC50 (Plasmodium falciparum [3]) [nM]
CCN(CC)[P+](N(C)C[Si](C)(C)C)(N(CC)CC)N(CC)CC | 8410 | 154 | 523
CC(=C(Cl)Cl)C(Br)=C(Br)CO | 50900 | 119 | 1690
CCOC(=O)c1cnc2c(C)cc(C)cc2c1Nc1ccc(C(C)=O)cc1 | > 100000 | 749 | 675
Cc1cc(Nc2ccc(Cl)cc2)n2nnnc2n1 | > 10000 | > 1640 | 1750
CCOC(=O)C1(Cc2ccc(OC)cc2)CCN(C(=O)c2scc3c2OCCO3)CC1 | > 100000 | 264 | 199
CCOC(=O)c1cnc2cc(Cl)c(OC)cc2c1NCCCN1CCOCC1 | > 10000 | 1370 | 1340
c1ccc(-c2nc3cc4nc(-c5ccccc5)[nH]c4cc3[nH]2)cc1 | > 100000 | 285 | 1200
COC(=O)CNC(=O)c1sc2ncn(CC(=O)Nc3ccccc3OC)c(=O)c2c1C | > 10000 | > 948 | > 739
CC(C)n1nnnc1CN1CCN(c2ccccc2F)CC1 | > 10000 | > 1480 | > 1190
COc1ccc(CCNC2(Cc3ccccc3)CC(C)N(C)CC2C)cc1OC (configuration not stated) | 42700 | 620 | 268
COc1cc(CNc2ccc3nc(N)nc(N)c3c2)cc(OC)c1OC | > 10000 | > 1030 | > 1250
Cc1ccccc1Cc1c(C)nc2c(C#N)c(C)nn2c1C | > 100000 | 282 | 273
CC1CCN(Cc2c(O)ccc3cc(-c4nc5ccccc5s4)c(=O)oc23)CC1 | > 100000 | > 12500 | 1470
c1ccc(-c2ccc(-c3ccccn3)nc2)nc1 | 360 | 287 | 141
CCOC(=O)c1sc(=S)n(-c2ccc(N(C)C)cc2)c1N | > 10000 | > 1190 | > 1270
CC(=O)Nc1cc(C(=O)Nc2ccc(C3=NCCN3)cc2)ccc1C(=O)Nc1ccc(C2=NCCN2)cc1 | > 100000 | 323 | 103
CCOc1ccc(-c2nonc2NC(=O)c2ccco2)cc1OCC | > 100000 | 590 | 481
